Data taken from ChEMBL document CHEMBL3046028, “3D-QSAR study of tyrosine and propanoic acid derivatives as PPAR/ dual agonists using CoMSIA” (Med Chem Res, 2013).

Assays:
[1] = molecular target: T1, Peroxisome proliferator-activated receptor gamma (Homo sapiens, UniProt P37231); type: cell-based, CV-1
T1 sequence (P37231 whole entry): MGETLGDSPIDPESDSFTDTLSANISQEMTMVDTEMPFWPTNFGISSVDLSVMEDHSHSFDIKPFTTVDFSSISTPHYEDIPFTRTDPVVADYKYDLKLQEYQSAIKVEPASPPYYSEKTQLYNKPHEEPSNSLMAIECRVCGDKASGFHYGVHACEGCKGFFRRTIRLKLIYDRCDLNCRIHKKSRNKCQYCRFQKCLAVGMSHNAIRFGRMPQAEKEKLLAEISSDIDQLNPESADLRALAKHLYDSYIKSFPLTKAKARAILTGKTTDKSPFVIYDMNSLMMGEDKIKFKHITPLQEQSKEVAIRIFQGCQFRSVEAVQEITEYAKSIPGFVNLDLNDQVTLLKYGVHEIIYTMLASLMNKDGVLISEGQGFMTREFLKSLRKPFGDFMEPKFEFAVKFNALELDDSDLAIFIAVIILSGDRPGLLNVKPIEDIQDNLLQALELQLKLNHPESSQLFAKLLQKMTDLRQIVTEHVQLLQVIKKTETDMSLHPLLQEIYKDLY
Description: Transactivation of GAL4-fused Homo sapiens (human) PPARgamma DNA binding domain expressed in African green monkey CV1 cells by luciferase reporter gene assay

[2] = molecular target: T2, Peroxisome proliferator-activated receptor alpha (Homo sapiens, UniProt Q07869); assay: Transactivation of GAL4-fused Homo sapiens (human) PPARalpha […] expressed in African green monkey CV1 cells by luciferase reporter gene assay; type: cell-based, CV-1
T2 sequence (Q07869 whole entry): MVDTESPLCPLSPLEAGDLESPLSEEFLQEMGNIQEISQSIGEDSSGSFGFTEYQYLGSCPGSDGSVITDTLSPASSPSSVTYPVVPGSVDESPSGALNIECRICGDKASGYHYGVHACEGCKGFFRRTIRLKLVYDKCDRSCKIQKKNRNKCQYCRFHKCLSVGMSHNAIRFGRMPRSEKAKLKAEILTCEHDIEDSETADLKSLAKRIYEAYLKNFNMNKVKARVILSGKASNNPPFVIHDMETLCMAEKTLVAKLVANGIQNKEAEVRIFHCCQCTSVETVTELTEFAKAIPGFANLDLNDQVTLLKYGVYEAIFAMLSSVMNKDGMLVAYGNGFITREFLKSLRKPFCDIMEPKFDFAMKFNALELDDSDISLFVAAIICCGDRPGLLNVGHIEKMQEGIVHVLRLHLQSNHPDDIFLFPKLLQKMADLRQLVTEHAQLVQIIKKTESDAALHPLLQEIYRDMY

Structure (SMILES)	EC50 [1]	EC50 ([2]; read-out: EC50)	EC50 ([2]; read-out: pEC50 (converted))
Cc1sc(N2CCN(C)CC2)nc1CCOc1ccc(C[C@@](O)(C(=O)O)c2ccccc2C(=O)c2ccccc2)cc1	1.29 nM	6460 nM	
Cc1oc(-c2ccccc2)nc1CCOc1ccc(C[C@]2(C(=O)O)C=CC=CO2)cc1	20 nM		
COC(=O)c1ccccc1[C@@](O)(Cc1ccc(OCCc2nc(-c3ccccc3)oc2C)cc1)C(=O)O	0.71 nM	3500 nM	
Cc1oc(-c2ccccc2)nc1CCOc1ccc(C[C@@]2(C(=O)O)CCOCCO2)cc1	24 nM	6900 nM	
CCO[C@@H](Cc1ccc(OC/C=C(/c2ccccc2)c2ccc(F)cc2)cc1)C(=O)O			3160 nM
CCO[C@@H](Cc1ccc(OC/C=C(/c2ccccc2)c2ccc(-c3ccccc3)cc2)cc1)C(=O)O			692 nM

The remaining compounds from weak to strong by EC50 [1], led by results:

EC50 [1]	EC50 ([2]; read-out: EC50)	Structure (SMILES)	EC50 ([2]; read-out: pEC50 (converted))
0.34 nM	457 nM	Cc1oc(-c2ccccc2)nc1CCOc1ccc(C[C@@](O)(C(=O)O)c2ccccc2C(=O)c2ccccc2)cc1	
0.1 nM	1050 nM	Cc1sc(-c2ccccc2)nc1CCOc1ccc(C[C@@](O)(C(=O)O)c2ccccc2C(=O)c2ccccc2)cc1	
